SMILES strings stand for the structures.

The source of these data is patent US20030153603A1, “Agent for enhancing accumulation of drugs in tumor tissues” (Toray Industries, Inc., priority 1999, published 2003).

Holding throughout (type): in vivo, Donryu rats
For test [1], the system named is tumor tissue. Briefly: Permeability of Evans Blue in various tissues, beraprost sodium intravenously administered vs not administered. The following applies: 20 μg injected into the tail vein; tumor-bearing rats; P<0.05. On the procedure:
A 136B cells were transplanted to dorsa of feet of Donryu rats to form solid tumors. To each of the tumor-bearing rats, 0.5 mL of solution of Evans Blue (1.5%) in physiological saline was administered i.v. and then 2 μg of beraprost sodium was injected into common iliac artery which is the tumor-controlling artery. The blood vessel perneability-increasing effect was evaluated by comparing the amounts of the accumulated Evans Blue-albumin complex in the tissue, which is the index of the blood vessel permeability in the tumor tissue, of the beraprost sodium-administered group and of the non-administered group. As a result, it was observed that by administration of 2 μg of beraprost sodium, the blood vessel permeability was increased to about 3.4 times that of the non-administered group (P<0.01). The amount of the accumulated Evans Blue was spectrophotometrically quantified after extraction with formamide at 30° C. for 48 hours. […] The blood vessel permeability-increasing effect was evaluated by comparing the amounts of the accumulated Evans Blue-albumin complex in the tissues of the beraprost sodium-administered group and of the non-administered group. […] The amount of the accumulated Evans Blue was quantified in the same manner as in Example 1.

Test [2] deals with tumor tissue. Briefly: Change in blood flow in various tissues after 0.2, 2 or 20 μg beraprost sodium (Doppler type blood flowmeter). The following applies: 0.2, 2 or 20 μg injected. On the procedure: A 136B cells were transplanted to dorsa of feet of Donryu rats to form solid tumors. To each of the tumor-bearing rats, 0.5 mL of solution of Evans Blue (1.5%) in physiological saline was administered i.v. and then 2 μg of beraprost sodium was injected into common iliac artery which is the tumor-controlling artery. The blood vessel perneability-increasing effect was evaluated by comparing the amounts of the accumulated Evans Blue-albumin complex in the tissue, which is the index of the blood vessel permeability in the tumor tissue, of the beraprost sodium-administered group and of the non-administered group. As a result, it was observed that by administration of 2 μg of beraprost sodium, the blood vessel permeability was increased to about 3.4 times that of the non-administered group (P<0.01). The amount of the accumulated Evans Blue was spectrophotometrically quantified after extraction with formamide at 30° C. for 48 hours. Into common iliac artery which is the tumor-controlling artery of the tumor on the dorsum of foot of each of the tumor-bearing rats prepared in the same manner as in Examples 1 to 3, 0.2, 2, or 20 μg of beraprost sodium was arterially injected and the change in the blood flow was measured by a Doppler type blood flowmeter. […]

Test [3] relates to tumor tissue. Briefly: Change in blood flow in various tissues by continuous arterial injection (Doppler type blood flowmeter). On the procedure: A 136B cells were transplanted to dorsa of feet of Donryu rats to form solid tumors. To each of the tumor-bearing rats, 0.5 mL of solution of Evans Blue (1.5%) in physiological saline was administered i.v. and then 2 μg of beraprost sodium was injected into common iliac artery which is the tumor-controlling artery. The blood vessel perneability-increasing effect was evaluated by comparing the amounts of the accumulated Evans Blue-albumin complex in the tissue, which is the index of the blood vessel permeability in the tumor tissue, of the beraprost sodium-administered group and of the non-administered group. As a result, it was observed that by administration of 2 μg of beraprost sodium, the blood vessel permeability was increased to about 3.4 times that of the non-administered group (P<0.01). The amount of the accumulated Evans Blue was spectrophotometrically quantified after extraction with formamide at 30° C. for 48 hours. Into common iliac artery which is the tumor-controlling artery of the tumor on the dorsum of foot of each of the tumor-bearing rats prepared in the same manner as in Examples 1 and 2, 0.3 mL of beraprost sodium solution (30 μg/mL) in middle-length fatty acid was arterially injected continuously for 1 minute. The changes in the blood flow in various tissues were measured by a Doppler type blood flowmeter. The rate of change was expressed in terms of % of the average during 10 minutes after the beginning of the arterial injection based on the average during several minutes before the arterial injection. […] This was the phenomenon brought about by the specific relaxation of the blood vessels in the tumor tissues.

Test [4] concerns tumor tissue. Briefly: Permeability of Evans Blue in tumor tissue, beraprost sodium arterially administered vs not administered. The note with it: 2 μg injected into common iliac artery; A 136B solid tumor on dorsum of foot; P<0.01. How it is done:
A 136B cells were transplanted to dorsa of feet of Donryu rats to form solid tumors. To each of the tumor-bearing rats, 0.5 mL of solution of Evans Blue (1.5%) in physiological saline was administered i.v. and then 2 μg of beraprost sodium was injected into common iliac artery which is the tumor-controlling artery. The blood vessel perneability-increasing effect was evaluated by comparing the amounts of the accumulated Evans Blue-albumin complex in the tissue, which is the index of the blood vessel permeability in the tumor tissue, of the beraprost sodium-administered group and of the non-administered group. As a result, it was observed that by administration of 2 μg of beraprost sodium, the blood vessel permeability was increased to about 3.4 times that of the non-administered group (P<0.01). The amount of the accumulated Evans Blue was spectrophotometrically quantified after extraction with formamide at 30° C. for 48 hours.

Consider `CC#CCC(C)[C@H](O)/C=C/C1[C@H](O)C[C@@H]2Oc3c(CCCC(=O)O)cccc3[C@H]12` (stereo partly shown) [beraprost sodium], for which the “blood vessel permeability (accumulated Evans Blue-albumin complex in the tissues)” value with tumor tissue [1] is “about 1.5 times that of the non-administered group”. Moreover, the “decrease in the blood flow in normal tissue organs such as liver and kidney” value in the test on tumor tissue [2] is reported as “not observed”. For the same molecule, the “blood flow in the tumor” value in the test with tumor tissue [2] (average during 10 minutes after start vs before) is “Sharp decrease”. In the test with tumor tissue [3] (continuous arterial injection at 10 μg/kg/min, P<0.05), the “blood flow in the tumor compared with kidney” value is reported as “significantly more decreased than in kidney”. In the test with tumor tissue [3] (continuous arterial injection at 17 μg/kg/min, tumor vs. liver P<0.05, tumor vs. kidney P<0.01), the “blood flow in the tumor compared with kidney and liver” value was “significantly more decreased than in kidney and in liver”. Also, in the test with tumor tissue [3] (continuous arterial injection for 1 minute into common iliac artery, average during 10 minutes after start vs before), the “blood flow in the tumor tissue” value is “sharply decreased dose-dependently”. Moreover, in the test with tumor tissue [4], the “blood vessel permeability (accumulated Evans Blue-albumin complex in tumor tissue)” value is recorded as “about 3.4 times that of the non-administered group”.
